These results are taken from ChEMBL document CHEMBL3227939, “Synthesis of daunorubicin analogues with novel 9-acyl substituents” (1979).

What is called ΔTm is the change in melting temperature against a reference sample. Usually T/C stands for the result in the treated group divided by that in the control group, in per cent.

Assay [1] relates to Calf thymus DNA. In words: Binding affinity to calf thymus DNA assessed as change in melting temperature. The settings on record: Bos taurus. In kind it is nucleic-acid assay.
The test system of assay [2] is L1210. The assay can be described thus: Inhibition of DNA synthesis in mouse L1210 cells. In kind it is functional. The settings on record: read-out: ED50 (the source's name).
Assay [3] concerns P388. The assay can be described thus: Antitumor activity against mouse P388 cells allografted in CDF/RDF mouse assessed as increase in survival time at 50 mg/kg, ip administered once daily on day 5, 9 and 13 relative to control. In kind it is functional. The settings on record: route intraperitoneal.
Assay [4] relates to L1210. In words: Inhibition of RNA synthesis in mouse L1210 cells. The settings on record: read-out: ED50 (the source's name). In kind it is functional.
Assay [5] deals with P388. In words: Antitumor activity against mouse P388 cells allografted in CDF/RDF mouse assessed as increase in survival time at 3.13 mg/kg, ip administered once daily on days 1 to 9 relative to control. The settings on record: route intraperitoneal. In kind it is functional.
Assay [6] deals with P388. The assay can be described thus: Antitumor activity against mouse P388 cells allografted in CDF/RDF mouse assessed as increase in survival time at 37.5 mg/kg, ip administered once daily on day 5, 9 and 13 relative to control. In kind it is functional. Conditions: route intraperitoneal.
For assay [7], the system named is P388. The assay can be described thus: Antitumor activity against mouse P388 cells allografted in CDF/RDF mouse assessed as increase in survival time at 12.5 mg/kg, ip administered once daily on day 5, 9 and 13 relative to control. In kind it is functional. Conditions: route intraperitoneal.
The test system of assay [8] is P388. The assay can be described thus: Antitumor activity against mouse P388 cells allografted in CDF/RDF mouse assessed as increase in survival time at 4 mg/kg, ip administered once daily on days 1 to 9 relative to control. Conditions: route intraperitoneal. In kind it is functional.

As to `COc1cccc2c1C(=O)c1c(O)c3c(c(O)c1C2=O)C[C@@](O)(C(=O)CCc1ccccc1)C[C@@H]3O[C@H]1C[C@H](N)[C@H](O)[C@H](C)O1`, in assay [1], the shift in melting temperature (ΔTm) was found to be 8.6 °C. The EC50 turned out to be 1500 nM in assay [2] and 1600 nM in assay [4]. For the same compound, the T/C in assay [3] came to 129%.
Turning to `COc1cccc2c1C(=O)c1c(O)c3c(c(O)c1C2=O)C[C@@](O)(C(=O)C(C)C)C[C@@H]3O[C@H]1C[C@H](N)[C@H](O)[C@H](C)O1`, in assay [1], the ΔTm turned out to be 10.3 °C. Besides, the EC50 is 1000 nM in assay [2] and 400 nM in assay [4]. Moreover, the results for the T/C in assay [5] and in assay [6] were 117% and 122%, respectively.
For `COc1cccc2c1C(=O)c1c(O)c3c(c(O)c1C2=O)C[C@@](O)(C(C)=O)C[C@@H]3O[C@H]1C[C@H](N)[C@H](O)[C@H](C)O1` [DAUNORUBICIN], the EC50 in assay [2] amounted to 660 nM; in assay [4], 330 nM.
On the same counts, the results for `COc1cccc2c1C(=O)c1c(O)c3c(c(O)c1C2=O)C[C@@](O)(C(=O)CO)C[C@@H]3O[C@H]1C[C@H](N)[C@H](O)[C@H](C)O1` [DOXORUBICIN] are 1500 nM and 580 nM.
In the case of `CCC(=O)[C@]1(O)Cc2c(O)c3c(c(O)c2[C@@H](O[C@H]2C[C@H](N)[C@H](O)[C@H](C)O2)C1)C(=O)c1c(OC)cccc1C3=O`, in assay [1], the ΔTm was found to be 11 °C. Also, the EC50 in assay [2] came out at 670 nM; in assay [4], 290 nM. For the same compound, the T/C in assay [7] came to 128%.
Regarding `COc1cccc2c1C(=O)c1c(O)c3c(c(O)c1C2=O)C[C@@](O)(C=O)C[C@@H]3O[C@H]1C[C@H](N)[C@H](O)[C@H](C)O1`, the T/C in assay [8] came to 169%; in assay [3], 154%. For the same compound, the ΔTm in assay [1] is 6.5 °C. Also, the EC50 was 4100 nM in assay [2] and 2000 nM in assay [4].
